From publication PMC3549271 (ACS medicinal chemistry letters, 2012)

Key:
[1] = molecular target: T1, A2BAR (Homo sapiens, UniProt P29275); assay type: cell-based
T1 sequence (P29275 1-332): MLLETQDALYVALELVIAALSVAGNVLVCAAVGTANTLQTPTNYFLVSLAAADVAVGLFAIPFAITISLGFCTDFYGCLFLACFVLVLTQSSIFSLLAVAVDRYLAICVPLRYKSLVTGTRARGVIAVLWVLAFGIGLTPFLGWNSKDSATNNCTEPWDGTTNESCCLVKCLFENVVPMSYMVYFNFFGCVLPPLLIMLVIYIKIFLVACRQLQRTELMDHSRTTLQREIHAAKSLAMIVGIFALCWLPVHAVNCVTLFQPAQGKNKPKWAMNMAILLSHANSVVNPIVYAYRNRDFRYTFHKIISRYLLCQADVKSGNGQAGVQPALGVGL

[2] = molecular target: T2, human A1 adenosine receptor (hA1AR) (Homo sapiens, UniProt P30542); assay: radioligand binding assay at human A1AR; conditions: read-out: % inhibition at 10μM A1
T2 sequence (P30542 1-326): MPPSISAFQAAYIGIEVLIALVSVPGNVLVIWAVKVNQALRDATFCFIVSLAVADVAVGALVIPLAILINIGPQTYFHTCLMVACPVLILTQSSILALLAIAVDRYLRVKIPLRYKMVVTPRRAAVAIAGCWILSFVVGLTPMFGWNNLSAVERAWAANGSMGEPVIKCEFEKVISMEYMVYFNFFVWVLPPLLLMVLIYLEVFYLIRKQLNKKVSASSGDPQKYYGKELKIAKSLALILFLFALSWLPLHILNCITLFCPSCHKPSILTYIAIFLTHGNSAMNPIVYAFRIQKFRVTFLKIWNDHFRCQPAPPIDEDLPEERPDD

[3] = molecular target: human A2A adenosine receptor (hA2AAR) (Homo sapiens, UniProt P29274); assay: radioligand binding assay at human A2AAR; conditions: free energy of binding divided by the number of heavy atoms
human A2A adenosine receptor (hA2AAR), sequence (P29274 whole entry): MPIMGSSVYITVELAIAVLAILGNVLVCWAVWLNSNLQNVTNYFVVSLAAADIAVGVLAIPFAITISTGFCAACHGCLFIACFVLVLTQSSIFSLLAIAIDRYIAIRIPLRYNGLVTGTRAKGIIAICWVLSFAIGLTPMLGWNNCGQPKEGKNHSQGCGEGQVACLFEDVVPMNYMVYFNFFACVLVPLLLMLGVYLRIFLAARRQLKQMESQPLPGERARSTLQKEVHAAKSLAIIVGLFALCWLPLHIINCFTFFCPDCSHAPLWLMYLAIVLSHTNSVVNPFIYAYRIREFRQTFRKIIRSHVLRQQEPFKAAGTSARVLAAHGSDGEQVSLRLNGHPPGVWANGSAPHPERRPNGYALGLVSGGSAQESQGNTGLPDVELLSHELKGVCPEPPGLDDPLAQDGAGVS

Structure (SMILES): Cc1cccc(O[C@H](C)C(=O)Nc2nc(-c3ccccc3)n[nH]2)c1 [Compound 1]
- % inhibition at 10μM A2B (inhibition of cAMP accumulation) ([1]; 10 μM compound, in the presence of 300 nM NECA, three independent experiments): no significant activity
- inhibition at 10 µM [2]: 19%
- ligand efficiency (LE) [3]: 0.34

Structure (SMILES): Cc1ccc(O[C@H](C)C(=O)Nc2nc(-c3ccco3)n[nH]2)cc1 [Compound 24]
- inhibition at 10 µM ([1]; read-out: % inhibition at 10μM A2B (inhibition of cAMP accumulation)): -15%

Structure (SMILES): CCCC(=O)Nc1nc(-c2ccccc2)n[nH]1 [Compound 27]
- ligand efficiency (LE) [3]: 0.48

Structure (SMILES): O=C(Nc1nc(-c2ccccc2)n[nH]1)c1ccccc1 [Compound 29]
- ligand efficiency (LE) [3]: 0.44

Structure (SMILES): COc1ccccc1C(=O)Nc1nc(-c2ccccc2)n[nH]1 [Compound 32]
- ligand efficiency (LE) [3]: 0.42
